Experimental data: BindingDB's records for patent US20250230147 (Genentech, 2025)

Tests used:
[1] = target: E3 ubiquitin-protein ligase CBL (Homo sapiens, UniProt P22681); test: Cbl-b and c-Cbl SPR Assay
[2] = target: E3 ubiquitin-protein ligase CBL-B (Homo sapiens, UniProt Q13191); test: Cbl-b and c-Cbl SPR Assay
Chain of E3 ubiquitin-protein ligase CBL-B (Q13191 whole entry): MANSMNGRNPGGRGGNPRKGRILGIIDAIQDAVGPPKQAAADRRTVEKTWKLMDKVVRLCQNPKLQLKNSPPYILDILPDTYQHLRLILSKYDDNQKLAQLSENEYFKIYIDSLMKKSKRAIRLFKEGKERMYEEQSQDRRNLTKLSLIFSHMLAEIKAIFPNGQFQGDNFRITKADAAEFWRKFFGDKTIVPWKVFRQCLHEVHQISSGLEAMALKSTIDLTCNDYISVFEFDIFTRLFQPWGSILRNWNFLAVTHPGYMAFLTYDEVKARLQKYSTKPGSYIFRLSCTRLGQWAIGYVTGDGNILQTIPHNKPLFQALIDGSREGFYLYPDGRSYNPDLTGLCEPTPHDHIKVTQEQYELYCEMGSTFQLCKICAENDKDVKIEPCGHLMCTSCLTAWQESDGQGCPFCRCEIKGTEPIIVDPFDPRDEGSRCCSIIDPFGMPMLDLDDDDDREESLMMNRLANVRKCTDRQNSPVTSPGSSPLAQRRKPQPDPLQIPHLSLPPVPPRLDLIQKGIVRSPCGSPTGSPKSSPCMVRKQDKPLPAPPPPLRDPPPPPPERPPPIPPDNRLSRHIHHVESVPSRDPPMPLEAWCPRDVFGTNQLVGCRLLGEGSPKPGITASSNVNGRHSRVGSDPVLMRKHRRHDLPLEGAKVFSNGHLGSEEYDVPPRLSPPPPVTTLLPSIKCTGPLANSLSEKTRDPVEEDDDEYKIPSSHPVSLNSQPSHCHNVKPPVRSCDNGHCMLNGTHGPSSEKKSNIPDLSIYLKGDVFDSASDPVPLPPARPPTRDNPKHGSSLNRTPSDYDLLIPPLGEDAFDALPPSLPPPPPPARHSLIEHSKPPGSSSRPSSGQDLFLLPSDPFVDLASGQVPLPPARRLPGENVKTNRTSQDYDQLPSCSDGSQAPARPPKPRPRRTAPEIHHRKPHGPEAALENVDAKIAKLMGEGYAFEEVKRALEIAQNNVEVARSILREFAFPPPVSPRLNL

Compound	IC50 [1]	IC50 [2]
Cn1cnnc1[C@H](F)[C@](C)(F)c1cccc(N2Cc3c(cc(CN4CCC5(CC5)C4)cc3C(F)(F)F)C2=O)c1 [US20250230147, Compound 127]	170 nM	77 nM
Cn1cnnc1[C@@H](F)[C@](C)(F)c1cccc(N2Cc3c(cc(CN4CCC5(CC5)C4)cc3C(F)(F)F)C2=O)c1 [US20250230147, Compound 129]	460 nM	130 nM
Cn1cnnc1[C@H](F)[C@@](C)(F)c1cccc(N2Cc3c(cc(CN4CCC5(CC5)C4)cc3C(F)(F)F)C2=O)c1 [US20250230147, Compound 128]	1600 nM	480 nM
Cn1cnnc1[C@@H](F)[C@@](C)(F)c1cccc(N2Cc3c(cc(CN4CCC5(CC5)C4)cc3C(F)(F)F)C2=O)c1 [US20250230147, Compound 130]	13000 nM	4000 nM
Cn1cnnc1[C@H](F)C1(c2cccc(N3Cc4c(Cl)cc(CNC5(C)CCC5)cc4C3=O)c2)COC1 [US20250230147, Compound 470]	8.5 nM	12 nM
